Source: PMC4679366 (European journal of medicinal chemistry, 2014)
Read-outs that look alike come from different tables or passages of the source.

Experiments:
[1] = test system: HepG2 liver cells; experiment: HepG2 toxicity assay; format: cell-based; details: Homo sapiens, HepG2, read-out: HepG2 IC50
[2] = test system: P. falciparum 3D7; experiment: Asexual stage in vitro antimalarial assay, [3H]-hypoxanthine incorporation; format: cell-based; details: Plasmodium falciparum, 3D7, read-out: Pf 3D7 IC50
[3] = test system: P. falciparum NF54 late stage gametocytes (IV–V); experiment: Late stage P. falciparum; format: cell-based; details: Plasmodium falciparum, NF54, HN12, 72 h, read-out: Pf LSG IC50
[4] = test system: human HDAC4; details: cited from earlier work
[5] = test system: human HDAC5; details: cited from earlier work
[6] = test system: P. falciparum histone H3; experiment: Histone hyperacetylation assay; format: cell-based, Plasmodium falciparum; details: 500 nM, 3 h, trophozoite-stage 3D7, Western blot anti-acetyl H3
[7] = test system: P. berghei exo-erythrocytic forms (EEF); experiment: Pb liver stage assay; format: cell-based; details: Plasmodium berghei, 48 h, read-out: Pb EEF IC50, P. berghei exo-erythrocytic forms in HepG2-A16-CD81EGFP cells, 48 h
[8] = test system: P. falciparum; details: read-out: P. falciparum IC50; cited from earlier work
[9] = test system: P. falciparum 3D7; details: read-out: Pf 3D7 IC50, asexual blood stages; cited from earlier work
[10] = test system: P. falciparum histone H4; experiment: Histone hyperacetylation assay; format: cell-based, Plasmodium falciparum; details: 500 nM, 3 h, trophozoite-stage 3D7, Western blot anti-acetyl H4

Q: Which IC50 [1] does the source give for `O=C1C(O)=C([C@H]2CC[C@H](c3ccc(Cl)cc3)CC2)C(=O)c2ccccc21` [Atovaquone] here?
A: The IC50 was over 10000 nM.

Q: Which results are given for `CCN(CC)CCCC(C)Nc1ccnc2cc(Cl)ccc12` (stereo not drawn) [Chloroquine]?
A: IC50 [2]: 10 nM; IC50 [3]: > 120000 nM

Q: Which “human HDAC4 IC50” value [4] does the source give for `Cc1cc(C)cc(C(=O)NOCCCCCC(=O)NO)c1` [Compound 1a] here?
A: Its value is “low nanomolar”.

Q: What about the “human HDAC5 IC50” value [5] of the same molecule?
A: Its value is “low nanomolar”.

Q: Which “hyperacetylation of P. falciparum histone H3” value [6] does the source give for `Cc1ccc(C(=O)NOCCCCCC(=O)NO)cc1C` [Compound 1b] here?
A: The value was “to a lesser extent”.

Q: Which IC50 [7] does the source give for `CCCOc1ccc(C(=O)NOCCCCCC(=O)NO)cc1` [Compound 1m, N-((6-(Hydroxyamino)-6-oxohexyl)oxy)-4-propoxybenzamide] here?
A: Its IC50 is over 5000 nM.

Q: With `CCCCCOc1ccc(C(=O)NOCCCCCC(=O)NO)cc1` [Compound 1n, N-((6-(Hydroxyamino)-6-oxohexyl)oxy)-4-(pentyloxy)benzamide] as the molecule, how does the IC50 [7] read?
A: Its IC50 is over 5000 nM.

Q: Which IC50 [7] does the source give for `CCCCCCOc1ccc(C(=O)NOCCCCCC(=O)NO)cc1` [Compound 1s, 4-(Hexyloxy)-N-((6-(hydroxyamino)-6-oxohexyl)oxy)benzamide] here?
A: The IC50 was over 5000 nM.

Q: For `O=C(/C=C/c1ccccc1)N[C@@H](CCCCCC(=O)NO)C(=O)Nc1cccc2cccnc12` [Compound 2-ASA-9], which IC50 [8] is on record?
A: Its IC50 is 15 to 39 nM.

Q: For `O=C(CCCCCCC(=O)Nc1ccccc1)NO` [SAHA, suberoylanilide hydroxamic acid], which IC50 [9] is on record?
A: Its IC50 is 130 nM.

Q: For `CCCCc1nc2cc(/C=C/C(=O)NO)ccc2n1CCN(CC)CC` [SB939], which IC50 [8] is on record?
A: Its IC50 is 80 to 150 nM.

Q: Which “hyperacetylation of P. falciparum histone H4” value [10] does the source give for `CC(/C=C/C(=O)NO)=C\[C@@H](C)C(=O)c1ccc(N(C)C)cc1` [TSA, Trichostatin A] here?
A: Its value is “caused hyperacetylation”.

Q: What about the IC50 [8] of the same molecule?
A: The IC50 was 8 to 11 nM.

Q: Which IC50 [8] does the source give for `Nc1cccc(-c2csc(NC(=O)CCCCCCC(=O)NO)n2)c1` [WR301801 (YC-II-88)] here?
A: The IC50 was 0.6 to 1.8 nM.
